Measured values as given in patent publication US8273754B2, “Substituted 1H-pyrazolo[3,4-D]pyrimidine-6-amine compounds” (ArQule, Inc., priority 2008, dated 2012).
Read-outs that look alike come from different tables or passages of the source.

Tested on: cancer cells
Assay: MTS cell growth inhibition assay (72 hours)
Format: cell-based
Summary of the method: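 Cells in DMEM with 1% FBS, seeded 18 h, then compound-treated 72 h at 37 °C. Viability by MTS/PMS for 4 h, formazan absorbance at 492 nm; IC50 taken as concentration giving 50% absorbance drop, activity banded by percent inhibition.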

[1] = Homo sapiens, DLD-1, 72 h, DLD-1 cells, read-out: DLD-1 MTS 72 hr at 10 μM
[2] = Homo sapiens, KATO III, 72 h, KATO III cells, read-out: KATO III MTS 72 hr at 10 μM
[3] = Homo sapiens, MDA-MB-231, 72 h, MDA-MB-231 cells, read-out: MDA-MB-231 MTS 72 hr at 10 μM
[4] = Homo sapiens, NCI-H1299, 72 h, NCI-H1299 cells, read-out: NCI-H1299 MTS 72 hr at 10 μM
[5] = PaCa-2, 72 h, PACA-2 cells, read-out: PACA-2 MTS 72 hr at 10 μM

## Nc1nc(NC2Cc3ccccc3N(S(=O)(=O)c3cccc(NC(=O)Nc4ccc5ccccc5c4)c3)C2)c2cn[nH]c2n1 (stereo not shown) [Compound 212, 1-[3-({3-[(6-amino-1H-pyrazolo[3,4-d]pyrimidin-4-yl)amino]-3,4-dihydroquinolin-1(2H)-yl}sulfonyl)phenyl]-3-(2-naphthyl)urea]
[1]
  inhibition at 10 µM: > 79%
[2]
  inhibition at 10 µM: > 79%
[3]
  inhibition at 10 µM: > 79%
[4]
  inhibition at 10 µM: > 79%
[5]
  inhibition at 10 µM: > 79%

## Cc1ccc(Oc2ccccc2CN2CC(Nc3nc(N)nc4[nH]ncc34)Cc3ccccc32)cc1 (stereo not shown) [Compound 158, N4-{1-[2-(4-methylphenoxy)benzyl]-1,2,3,4-tetrahydroquinolin-3-yl}-1H-pyrazolo[3,4-d]pyrimidine-4,6-diamine]
[1]
  inhibition at 10 µM: > 79%
[2]
  inhibition at 10 µM: > 79%
[3]
  inhibition at 10 µM: 50 to 79%
[4]
  inhibition at 10 µM: < 50%
[5]
  inhibition at 10 µM: > 79%

## Nc1nc(NC2Cc3ccccc3N(S(=O)(=O)c3ccc(NC(=O)Nc4cc(C(F)(F)F)ccc4F)cc3)C2)c2cn[nH]c2n1 (stereo not shown) [Compound 196, 1-[4-({3-[(6-amino-1H-pyrazolo[3,4-d]pyrimidin-4-yl)amino]-3,4-dihydroquinolin-1(2H)-yl}sulfonyl)phenyl]-3-[2-fluoro-5-(trifluoromethyl)phenyl]urea]
[1]
  inhibition at 10 µM: > 79%
[2]
  inhibition at 10 µM: > 79%
[3]
  inhibition at 10 µM: > 79%
[4]
  inhibition at 10 µM: 50 to 79%
[5]
  inhibition at 10 µM: > 79%

## Nc1nc(NC2Cc3ccccc3N(S(=O)(=O)c3ccc(NC(=O)Nc4ccccc4F)cc3)C2)c2cn[nH]c2n1 (stereo not shown) [Compound 191, 1-[4-({3-[(6-amino-1H-pyrazolo[3,4-d]pyrimidin-4-yl)amino]-3,4-dihydroquinolin-1(2H)-yl}sulfonyl)phenyl]-3-(2-fluorophenyl)urea]
[1]
  inhibition at 10 µM: < 50%
[2]
  inhibition at 10 µM: < 50%
[3]
  inhibition at 10 µM: < 50%
[4]
  inhibition at 10 µM: < 50%
[5]
  inhibition at 10 µM: < 50%

## Nc1nc(NC2Cc3ccccc3N(S(=O)(=O)c3cccc(NC(=O)Nc4c(F)cccc4F)c3)C2)c2cn[nH]c2n1 (stereo not shown) [Compound 203, 1-[3-({3-[(6-amino-1H-pyrazolo[3,4-d]pyrimidin-4-yl)amino]-3,4-dihydroquinolin-1(2H)-yl}sulfonyl)phenyl]-3-(2,6-difluorophenyl)urea]
[1]
  inhibition at 10 µM: < 50%
[2]
  inhibition at 10 µM: < 50%
[3]
  inhibition at 10 µM: < 50%
[4]
  inhibition at 10 µM: < 50%
[5]
  inhibition at 10 µM: 50 to 79%

## Nc1nc(NC2Cc3ccccc3N(C(=O)NCCc3cccc(Cl)c3)C2)c2cn[nH]c2n1 (stereo not shown) [Compound 106, 3-(6-amino-1H-pyrazolo[3,4-d]pyrimidin-4-ylamino)-N-(3-chlorophenethyl)-3,4-dihydroquinoline-1(2H)-carboxamide]
[1]
  inhibition at 10 µM: < 50%
[2]
  inhibition at 10 µM: < 50%
[3]
  inhibition at 10 µM: < 50%
[4]
  inhibition at 10 µM: < 50%
[5]
  inhibition at 10 µM: < 50%

## Cc1ccccc1Oc1cccc(S(=O)(=O)N2CC(Nc3nc(N)nc4[nH]ncc34)Cc3ccccc32)c1 (stereo not shown) [Compound 71, N4-(1-(3-(o-tolyloxy)phenylsulfonyl)-1,2,3,4-tetrahydroquinolin-3-yl)-1H-pyrazolo[3,4-d]pyrimidine-4,6-diamine]
[1]
  inhibition at 10 µM: > 79%
[2]
  inhibition at 10 µM: > 79%
[3]
  inhibition at 10 µM: > 79%
[4]
  inhibition at 10 µM: 50 to 79%
[5]
  inhibition at 10 µM: > 79%

## Cc1c(C(=O)N2CC(Nc3nc(N)nc4[nH]ncc34)Cc3ccccc32)oc2ccccc12 (stereo not shown) [Compound 91, (3-(6-amino-1H-pyrazolo[3,4-d]pyrimidin-4-ylamino)-3,4-dihydroquinolin-1(2H)-yl)(3-methylbenzofuran-2-yl)methanone]
[1]
  inhibition at 10 µM: 50 to 79%
[2]
  inhibition at 10 µM: > 79%
[3]
  inhibition at 10 µM: > 79%
[4]
  inhibition at 10 µM: < 50%
[5]
  inhibition at 10 µM: > 79%
